16 compounds from patent US20090227612A1, “Aminopyrimidine Derivatives Inhibiting Protein Kinase Activity, Method For The Preparation Thereof And Pharmaceutical Composition Containing Same” (priority 2005, published 2009) can be followed below.

As usually defined, the IC50 is the concentration that gives 50% inhibition. The EC50 is the concentration that produces a half-maximal response. A high value points to a need for much substance. As a reminder, the CC50 is the concentration giving 50% cytotoxicity.

Like-named read-outs stand apart in the source and are kept apart here.

For series [1], the target named is T1, Aurora A (Homo sapiens, UniProt O14965).
T1 construct: purchased Upstate
T1 sequence (O14965 1-403): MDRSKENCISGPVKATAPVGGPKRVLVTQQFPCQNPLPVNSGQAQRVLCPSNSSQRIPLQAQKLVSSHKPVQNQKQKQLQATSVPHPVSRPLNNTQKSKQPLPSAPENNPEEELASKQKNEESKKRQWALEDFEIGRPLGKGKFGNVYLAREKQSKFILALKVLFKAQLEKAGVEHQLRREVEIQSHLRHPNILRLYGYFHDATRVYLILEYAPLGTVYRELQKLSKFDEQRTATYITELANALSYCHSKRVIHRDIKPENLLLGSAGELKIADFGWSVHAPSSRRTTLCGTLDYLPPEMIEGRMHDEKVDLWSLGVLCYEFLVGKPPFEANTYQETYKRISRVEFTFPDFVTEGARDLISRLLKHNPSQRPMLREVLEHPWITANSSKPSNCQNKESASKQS
Kind of series: Aurora A kinase activity assay (Kemptide substrate, Kinase-Glo residual ATP). In kind it is biochemical. Particulars: recombinant Aurora A 10 nM, ATP 1 μM, Kemptide 100 μM, 30° C. 1 hour. The method, then: Further, the test compounds and comparative compound were successively diluted with dimethyl sulfoxide (DMSO) from an initial concentration of 12.5 mM to obtain test solutions and DMSO was used as a control solution. Less than 5% of each test solution or control solution was added to a reaction solution containing 20 mM HEPES (pH 7.5), 5 mM MgCl2, 0.5 mM EGTA, 200 mM KCl, 1 mM DTT and 0.05% triton X-100, and 100 μM of Kemptide peptide (PEPTRON), which is a substrate of aurora kinase, 1 μM of ATP and 10 nM of Aurora A (Upstate), which is a recombinant aurora kinase, were added thereto, followed by reacting each mixture at 30° C. for 1 hour. 25 μl of each reacted solution was mixed with 25 μl of Kinase-Glo™ (promega), and reacted at room temperature for 10 minutes, and the amount of residual ATP therein was measured using Fusion a-FP (Packard). Enzymic activity in each reacted solution was analyzed based on the measured value, and IC50 (μM) was determined as a concentration of the test compound required to inhibit the kinase activity by 50% relatively to the control solution, and the results are shown in Table 2.
For orientation: Kinase-Glo measures the ATP left after a reaction by luminescence.

In series [2] the test system is human colon carcinoma cell line, HCT116. Kind of series: Cancer cell proliferation, SRB assay. Format: cell-based. To be noted: HCT116, 48 hours, concentration inhibiting cancer cell proliferation by 50%. The method, then:
(§1) In order to examine the suppressive effect of the inventive aminopyrimidine derivatives on the proliferation of cancer cells through inhibiting the protein kinase activity, a test was performed as follows by employing human colon carcinoma cell line, HCT116 (Korean Cell Line Bank, KCLB10247) and human fetal cell line, MRC-5 (Korean Cell Line Bank, KCLB10171).
(§2) HCT116 and MRC-5 cells were plated into the wells of a 96-well plate containing DMEM (Dulbecco's Modified Eagle Medium) medium at a concentration ranging from 1×10^3 to 3×10^3 cells/well, and cultured under conditions of 5% CO2 and 37° C. for 24 hours. Then, the test compounds of Examples 85 to 88, 97 to 99, 105 to 110 and 115 to 118, and a comparative compound, N-(4-(4-(5-methyl-1H-pyrrole-3-yl-amino)-6-(4-methylpiperazin-1-yl)-1,3,5-triazin-2-ylthio) cyclopropane carboxyamide were added thereto in an amount of 0.2, 1, 5, 25 and 100 μM, respectively. The control was not treated with any compound. The cells were cultured for 48 hours.
(§3) After removing the medium from each wells, the cells were washed about 3 times with phosphate-buffered saline (PBS, pH 7.4), followed by fixing with 50% TCA (trichloroacetic acid) refrigerant solution in an amount of 50 μl/well at 4° C. for 1 hour. The fixed cells were washed 5 times with distilled water and dried in the air, and stained with 50 μl/well of 1% acetic acid containing 0.4% SRB (sulforhodamine B) solution at room temperature for 1 hour. The stained cells were washed 5 times with 1% acetic acid and dried in the air, 150 μl/well of 10 mM Tris-HCl (pH 10.5) were added thereto, and the absorbance of each well was measured at 540 nm. The suppressive value of each compound for cell proliferation was calculated based on the absorbance of the control well, and the results are shown in Table 2. In Table 2, EC50 (μM) was determined as a concentration of the test compound required to inhibit cancer cell proliferation by 50% relative to the control, CC50 (μM) was determined as a concentration of the test compound required to inhibit normal cell proliferation by 50% relative to the control, and the therapeutic index was determined as the value of CC50(μM)/EC50(μM).
In general terms: The SRB assay estimates cell density from bound dye.

The nature of series [3]: Normal cell proliferation, SRB assay. In kind it is cell-based, human. Particulars: human, CC50(μM). How it is done: as §1, §2, §3
Series [4] has as its system human fetal cell line, MRC-5. Kind of series: Normal cell proliferation, SRB assay. In kind it is cell-based. The method, then:
as §1, §2, §3

As to `CC1(C)C2CCC1(C)C(NC(=O)c1ccnc(Nc3ccc(N4CCCCC4)cc3)n1)C2` (stereo not drawn) [Compound 85, 2-(4-(piperidine-1-yl)phenylamino)-N-(1,7,7-trimethylbicyclo[2.2.1]heptane-2-yl)pyrimidine-4-carboxyamide], the IC50 in series [1] turned out to be 33 nM. For the same compound, the EC50 in series [2] (Homo sapiens, HCT-116, 48 h) turned out to be 1600 nM. The same compound displayed a half-maximal cytotoxic concentration (CC50) at 48 h in series [3] of 38 µM.

`CN(C)CCNc1ccc(Nc2nccc(C(=O)NC3CC4CCC3(C)C4(C)C)n2)cc1` (stereo not drawn) [Compound 86]: in series [1], the half-maximal inhibitory concentration (IC50) was 88 nM. The compound also registered an EC50 in series [2] (Homo sapiens, HCT-116, 48 h) of 1200 nM. Moreover, the 50% cytotoxic concentration (CC50) at 48 h in series [3] was over 100 µM.

In the case of `CC1(C)C2CCC1(C)C(NC(=O)c1ccnc(Nc3ccc(NCCN4CCCC4)cc3)n1)C2` (stereo not drawn) [Compound 88, 2-(4-(2-(pyrrolidine-1-yl)ethylamino)phenyl-amino)-N-(1,7,7-trimethylbicyclo[2.2.1]heptane-2-yl)pyrimidine-carboxamide], the IC50 in series [1] was determined as 10 nM. Further, the EC50 in series [2] (Homo sapiens, HCT-116, 48 h) came to 800 nM. In series [3], this compound displayed a CC50 at 48 h of 24.5 µM.

With `CC1(C)C2CCC1(C)C(NC(=O)c1ccnc(Nc3cccc(NCCCN4CCOCC4)c3)n1)C2` (stereo not drawn) [Compound 97, 2-(3-(3-morpholinopropylamino)phenylamino)-N-(1,7,7-trimethylbicyclo[2.2.1]hep-tan-2-yl)pyrimidine-4-carboxyamide], in series [1], the IC50 was 50 nM. In series [2] (Homo sapiens, HCT-116, 48 h), this compound showed a concentration giving a half-maximal response (EC50) of 3100 nM. In series [3], this compound returned a CC50 at 48 h of over 100 µM.

For `CC1(C)C2CCC1(C)C(NC(=O)c1ccnc(Nc3cccc(NCCCN4CCOCC4)c3)n1)C2` (stereo not drawn) [Compound 98, 2-(3-(3-morpholinopropylamino)phenylamino)-N-(1,7,7-trimethylbicyclo[2.2.1]hep-tan-2-yl)pyrimidine-4-carboxyamide], the IC50 in series [1] amounted to 39 nM. In series [2], this compound came in with an EC50 of 3200 nM. In series [4] (human, 48 h), this compound yielded a 50% cytotoxic concentration (CC50) of 52600 nM.

With `COc1ccc(Nc2nccc(C(=O)NC3CC4CCC3(C)C4(C)C)n2)cc1OCCN1CCOCC1` (stereo not drawn) [Compound 99, 2-(4-methoxy-3-(2-morpholinoethoxy)phenyl-amino)-N-(1,7,7-trimethylbicyclo[2.2.1]hep-tan-2-yl)pyrimidine-4-carboxyamide], the half-inhibitory concentration (IC50) in series [1] was found to be 23 nM. Moreover, the EC50 in series [2] (Homo sapiens, HCT-116, 48 h) came out at 2000 nM. Also, in series [3], half-maximal cytotoxicity (CC50 at 48 h) was put at 52 µM.

In the case of `CCN1CCN(c2ccc(Nc3nccc(C(=O)NC4CC5CCC4(C)C5(C)C)n3)cc2)CC1` (stereo not drawn) [Compound 105, 2-(4-(4-ethylpiperazin-1-yl)phenylamino)-N-(1,7,7-trimethylbicyclo[2.2.1]hep-tan-2-yl)pyrimidine-4-carboxyamide], in series [1], the IC50 amounted to 17 nM. This compound showed a half-maximal effective concentration (EC50) in series [2] (Homo sapiens, HCT-116, 48 h) of 500 nM. In addition, in series [3], the CC50 at 48 h is over 100 µM.

With `CCN(CC)CCOc1cc(Nc2nccc(C(=O)NC3CC4CCC3(C)C4(C)C)n2)ccc1OC` (stereo not drawn) [Compound 106, 2-(3-(2-(diethylamino)ethoxy)-4-methoxyphenylamino)-N-(1,7,7-trimethylbicyclo[2.2.1]hep-tan-2-yl)pyrimidine-4-carboxyamide], in series [1], the IC50 came to 11 nM. The compound further gave an EC50 in series [2] of 900 nM. Besides, in series [4], the 50% cytotoxic concentration (CC50) came out at 33000 nM.

`COc1ccc(Nc2nccc(C(=O)NC3CC4CCC3(C)C4(C)C)n2)cc1OCCN1CCCC1` (stereo not drawn) [Compound 107, 2-(4-methoxy-3-(2-(pyrrolidin-1-yl)ethoxy)phenylamino)-N-(1,7,7-trimethylbicyclo[2.2.1]hep-tan-2-yl)pyrimidine-4-carboxyamide]: the IC50 in series [1] amounted to 18 nM. The same compound showed a half-maximal effective concentration (EC50) in series [2] (Homo sapiens, HCT-116, 48 h) of 1200 nM. Further, the CC50 at 48 h in series [3] is 46 µM.

On to `CC1(C)C2CCC1(C)C(NC(=O)c1ccnc(Nc3ccc(N4CCN(CCO)CC4)cc3)n1)C2` (stereo not drawn) [Compound 108, 2-(4-(4-(2-hydroxyethyl)piperazin-1-yl)phenylamino)-N-(1,7,7-trimethylbicyclo[2.2.1]hep-tan-2-yl)pyrimidine-4-carboxyamide], for which, in series [1], the IC50 was found to be 10 nM. In series [2] (Homo sapiens, HCT-116, 48 h), this compound had an EC50 of 1900 nM. In series [3], this compound showed a 50% cytotoxic concentration (CC50) at 48 h of 56 µM.

For `CC(C)N1CCN(c2ccc(Nc3nccc(C(=O)NC4CC5CCC4(C)C5(C)C)n3)cc2)CC1` (stereo not drawn) [Compound 109, 2-(4-(4-isopropylpiperazin-1-yl)phenylamino)-N-(1,7,7-trimethylbicyclo[2.2.1]hep-tan-2-yl)pyrimidine-4-carboxyamide], the concentration for half-maximal inhibition (IC50) in series [1] stood at 20 nM. Moreover, it took 2800 nM to reach a half-maximal effect in series [2] (Homo sapiens, HCT-116, 48 h) (EC50). This compound displayed a 50% cytotoxic concentration (CC50) at 48 h in series [3] of 23.5 µM.

Regarding `CCCN1CCN(c2ccc(Nc3nccc(C(=O)NC4CC5CCC4(C)C5(C)C)n3)cc2)CC1` (stereo not drawn) [Compound 110, 2-(4-(4-propylpiperazin-1-yl)phenylamino)-N-(1,7,7-trimethylbicyclo[2.2.1]hep-tan-2-yl)pyrimidine-4-carboxyamide], the IC50 in series [1] turned out to be 20 nM. The concentration for a half-maximal effect (EC50) in series [2] (Homo sapiens, HCT-116, 48 h) came to 1900 nM. Moreover, the CC50 at 48 h in series [3] worked out at 32 µM.

On to `CC(C)CN1CCN(c2ccc(Nc3nccc(C(=O)NC4CC5CCC4(C)C5(C)C)n3)cc2)CC1` (stereo not drawn) [Compound 115, 2-(4-(4-isobutylpiperazin-1-yl)phenylamino)-N-(1,7,7-trimethylbicyclo-[2.2.1]heptan-2-yl)pyrimidine-4-carboxyamide], for which the half-inhibitory concentration (IC50) in series [1] was 93 nM. A half-maximal effect in series [2] (Homo sapiens, HCT-116, 48 h) (EC50) was put at 3100 nM. Further, the CC50 at 48 h in series [3] is 100 µM.

As to `CC1(C)C2CCC1(C)C(NC(=O)c1ccnc(Nc3ccc(N4CCN(CC#N)CC4)cc3)n1)C2` (stereo not drawn) [Compound 116, 2-(4-(4-(cianomethyl)piperazin-1-yl)phenylamino)-N-(1,7,7-trimethylbicyclo [2.2.1]heptan-2-yl)pyrimidine-4-carboxyamide], the IC50 in series [1] turned out to be 12 nM. For the same compound, in series [2] (Homo sapiens, HCT-116, 48 h), the EC50 amounted to 1700 nM. In series [3], this compound showed a CC50 at 48 h of 26.6 µM.

Consider `CC1(C)C2CCC1(C)C(NC(=O)c1ccnc(Nc3cccc(NCC#N)c3)n1)C2` (stereo not drawn) [Compound 118, 2-(3-(cianomethylamino)phenylami-no)-N-(1,7,7-trimethylbicyclo-[2.2.1]heptane-2-yl)pyrimidine-4-carboxyamide], for which, in series [1], the IC50 was determined as 19 nM. In series [2] (Homo sapiens, HCT-116, 48 h), this compound had an EC50 of 2800 nM. Also, the CC50 at 48 h in series [3] was determined as 62.5 µM.

As for “N-(4-(4-(5-methyl-1H-pyrrole-3-yl-amino)-6-(4-methylpiperazin-1-yl)-1,3,5-triazin-2-ylthio) cyclopropane carboxyamide [Comparative compound, reference compound]”, in series [1], the IC50 was 19 nM. In series [2], the response was half-maximal at 3000 nM (EC50). Moreover, the CC50 in series [4] (MRC-5, 48 hours, concentration inhibiting normal cell proliferation by 50%, read-out: CC50) came out at 33000 nM.
